Source: patent US20220054658A1, “CONJUGATES” (Transfection Holdings Limited, priority 2018, published 2022)

Experiments:
C. elegans = experiment: Protein uptake in C. elegans (phiLOV protein conjugates); type: in vivo, Caenorhabditis elegans; details: positive control
Description: The effective PhiLOV protein conjugate in M9 buffer was taken from the chemical ligation and purification experiments. The amount of M9 buffer added was determined by the final concentration required. Nematodes (30-40 per protein sample to be analysed) were picked and added to the protein solution, and the resulting suspension was treated with OP50 E. coli solution for nematode sustenance. The nematode suspension was incubated at 20° C. in the dark, and covered with aluminium foil.
Aliquots (10 to 25 μL) were taken at 24, 48 and 72 h. and transferred into a new Eppendorf tube at each time point and diluted with M9 buffer (200 μL). The new suspension was placed in ice (for 1-2 min) and then centrifuged at 10.000 rpm for 1 min. The supernatant was removed and the concentrated nematodes were washed again (2×200 μL). In the final wash, a residual volume (approx. 30 μL) was left with the nematodes.
For the microscopy studies, a 1.5% agarose solution in water was warmed up for 1-1.5 min in a standard household microwave (Power 4). Two drops of the agarose solution were placed on a glass slide and covered with another glass slide. After 1 min, the two slides were taken apart from each other carefully. On the slide where the agarose remained, 15-20 μL of the final C. elegans solution was placed. To this was added a 20 mM sodium azide solution (5 μL) to inhibit nematode mobility.
Vaseline was placed around the agarose area before replacing the top cover slip. The cover slips were not pressed together. The nematodes were then analysed using a Zeiss Axiskop 2 Plus microscope using a Hamamatsu Orca-ER (CA 742-95) camera. The images were resolved using OpenLab on a Mac operating system.
Feeding was repeated after 48 h. with addition of 2 μL of OP50 bacteria for feeding purposes, and the worm incubation was continued in the dark at […].
Using the approach described above, 11 protein conjugates were tested for their ability to deliver the phiLOV protein into nematodes. […] The location and efficiency of the delivery can be modulated by small structural modifications to the delivery vehicle, as shown by compounds P1-P11 (including negative control, positive control using compound 1 and untagged phiLOV protein control).

T. annulata = experiment: Theileria annulata testing: uptake; type: cell-based; details: 1 hour, 37° C.
Description: T. annulata were cultured using RPMI 1640 with 10% Albumax II (Thermo-Fisher) serum. A standard hemocytometer was used to calculate the concentration of cells in the parent culture. […] For each compound and concentration to be tested, 2 mL of the culture were centrifuged at 1,000 rpm for 5 minutes. The medium was removed before the cells were resuspended in 950 μL of complete medium containing the compound to be tested at the desired concentration. This was prepared from a 100 mM stock solution of compound in DMSO. Once the cells were resuspended they were transferred to a 5 well plate (1 mL capacity per well). They were then incubated for 1 hour at 37° C. in an atmosphere of 5% CO2 in air. After the incubations were complete the contents of each well were transferred to a 10 mL centrifuge tube. Cold RPMI 1640 (Thermofisher) or HBSS added to obtain a volume of 5 mL. The suspension was then centrifuged at 1,000 rpm and at 4° C. for 5 minutes. […] After the final washing the pellet of cells was resuspended in a minimum amount of RPMI 1640 and then spotted onto a glass slide. The slide was then covered with a cover slip and analysed using Olympus BX60 UV microscope system with a Spot RT3 camera and Spot Image software with a FITC fluorescent filter.

L. passim strain PRA-403 = experiment: Lotmaria passim parasite uptake test; type: cell-based; details: 1 μM, room temperature, 45 min, microplate reader
[1] = test system: gastrointestinal system (crop, midgut and rectum) of adult honey bees; experiment: Honey bee gut uptake test; set-up: species or system Apis mellifera; details: 100 μM, 33° C., 45 min
Description: Honey bee (A. mellifera) hives were obtained and allowed to feed ab libitum spring to autumn. During the winter period, pollen mixed with 50% (v/v) sucrose was added to the honey bee hives in order to provide sufficient food. Honey bees were dissected and gastrointestinal system was removed including the crop, midgut and rectum, and added immediately to 500 μL of the delivery vehicle to be tested sample diluted with PBS at 100 μM final concentration or DMSO (0.1%) control. The mixture was incubated for 45 min at 33° C.
The gastrointestinal system (crop, midgut and rectum) of adult honey bees was extracted, and incubated with derivatives 1, 2, 8 and 11 at 100 μM and 33° C. for 45 min.

CC1=CC(C)=[N+]2C1=Cc1ccc(CCCn3cc(CCNC(=O)/C=C/NC(=O)[C@@H]4OC(C)(C)OCC4(C)C)nn3)n1[B-]2(F)F [Compound 1, (R,E)-N-((((3-[4,4-Difluoro-5,7-dimethyl-4-bora-3a,4a-diaza-s-indacene-3-yl]propyl)-1H-1,2,3-triazol-4-yl)ethylamino)-3-oxoprop-1-enyl)-2,2,5,5-tetramethyl-1,3-dioxane-4-carboxamide]
location of fluorescence in C. elegans (C. elegans; 24 h incubation): fluorescence could be observed in the pharynx, gut lumen and gut cells of both adults and larval stages of C. elegans | location of fluorescence in C. elegans (C. elegans; 48 h incubation): fluorescence was still localised in the pharynx, gut lumen and gut cells of both adults and larvae | location of fluorescence in C. elegans (C. elegans; 72 h incubation): fluorescence was still localised in the pharynx, gut lumen and gut cells of both adults and larvae | state of adult nematodes (C. elegans; 72 h point (same seen with M9 buffer negative control)): the adult nematodes were dead | uptake in T. annulata (T. annulata): very limited uptake | fluorescence relative to derivative 2 (L. passim strain PRA-403): approximately % of the fluorescence of derivative 2 | fluorescence in honey bee gut (crop, midgut, rectum) [1]: high fluorescence in the midgut and rectum, but not the crop
